{
  "source": "patent US20200003762A1",
  "about": "“Diagnostics Platform for Mitochondrial Dysfunctions/Diseases” (BioElectron Technology Corporation, priority 2018, published 2020)",
  "key": {"[1]": {"tested_on": "monocarboxylic acid transport", "settings": "cited from earlier work"}, "[2]": {"tested_on": "β-cell apical anion exchange", "settings": "read-out: block β-cell apical anion exchange (IC50); cited from earlier work"}, "[3]": {"tested_on": "succinate oxidase", "settings": "mitochondria preparations of S. cerevisiae; cited from earlier work"}, "[4]": {"tested_on": "NADH oxidase", "settings": "mitochondria preparations of S. cerevisiae; cited from earlier work"}, "[5]": {"tested_on": "succinate cythochrome C reductase", "settings": "mitochondria preparations of S. cerevisiae; cited from earlier work"}, "[6]": {"tested_on": "NADH-cytochrome C reductase", "settings": "mitochondria preparations of S. cerevisiae; cited from earlier work"}, "[7]": {"tested_on": "ADP ribosylation", "settings": "cited from earlier work"}, "[8]": {"molecular_target": "mitochondrial outer membrane protein mitoNEET (Homo sapiens, UniProt Q9NZ45)", "sequence (Q9NZ45 whole entry)": "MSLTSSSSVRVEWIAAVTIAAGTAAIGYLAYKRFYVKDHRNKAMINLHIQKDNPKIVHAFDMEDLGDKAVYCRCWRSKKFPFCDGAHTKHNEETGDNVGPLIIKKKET", "settings": "cited from earlier work"}, "[9]": {"molecular_target": "PPARγ (Homo sapiens, UniProt P37231)", "sequence (P37231 whole entry, species assumed)": "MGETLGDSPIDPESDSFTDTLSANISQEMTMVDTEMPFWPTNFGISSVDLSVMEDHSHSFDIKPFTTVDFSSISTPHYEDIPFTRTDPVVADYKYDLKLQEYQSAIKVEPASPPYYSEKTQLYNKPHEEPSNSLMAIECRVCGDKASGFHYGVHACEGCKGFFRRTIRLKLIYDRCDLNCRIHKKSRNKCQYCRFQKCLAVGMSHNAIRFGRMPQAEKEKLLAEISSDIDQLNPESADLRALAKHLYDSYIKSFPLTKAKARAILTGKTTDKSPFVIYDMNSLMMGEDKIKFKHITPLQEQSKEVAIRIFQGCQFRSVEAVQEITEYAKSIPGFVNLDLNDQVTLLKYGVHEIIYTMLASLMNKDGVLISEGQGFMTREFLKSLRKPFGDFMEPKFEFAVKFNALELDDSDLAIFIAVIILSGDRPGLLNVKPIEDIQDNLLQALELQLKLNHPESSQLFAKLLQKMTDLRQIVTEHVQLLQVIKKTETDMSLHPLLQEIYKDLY", "settings": "cited from earlier work"}, "[10]": {"tested_on": "mice models of diabetes II", "settings": "cited from earlier work"}, "[11]": {"tested_on": "plasma and mitochondrial membranes", "settings": "cited from earlier work"}, "[12]": {"tested_on": "background K+ current", "settings": "cited from earlier work"}, "[13]": {"tested_on": "Mg2+-ATPase", "settings": "cited from earlier work"}, "[14]": {"tested_on": "β-amyloid", "settings": "cited from earlier work"}, "[15]": {"tested_on": "mitochondrial superoxide production", "settings": "cited from earlier work"}, "[16]": {"tested_on": "ferroptosis", "settings": "cited from earlier work"}, "[17]": {"tested_on": "Y79", "experiment": "Exemplary training dataset: dysfunction D1 in Y79 cultures exposed to inhibitor A8674", "assay_type": "cell-based, Human", "from_the_text": "or more simply by Yt1 . . . i,d1 . . . j,c1 . . . l or still as a vector Y of the form [y1, y2, . . . , yi*j*l]. Thus, a partial excerpt from an exemplary training data derived from input tensor X for system 100 may be given by Table 7 below:\nIn the above training dataset, each entry of column Y is a value in the vector Y discussed above. Each entry q of column X(qk) with a hat “^” denotes a vector and is an entry in input tensor X, and is a vector of measured quantities [q1, q2, . . . , qk] of the analytes in the biomarker measurement such as those shown in Tables 3-5. In other words, the training dataset consists of measured vectors q at indices i,j,l of tensor X per above explanation. Human retinoblastoma (Y79) from Table 1 above is used as the cell-line from which in vitro cultures are grown.\nNote that rows 1-6 correspond to the scenario when no inhibitor was exposed (zero/O state), and unsurprisingly column Y indicates a 0 or a 0% probability that dysfunction D1 is present in the corresponding culture."}, "[18]": {"tested_on": "apoptosis", "settings": "cited from earlier work"}, "[19]": {"tested_on": "neoplastic cells", "settings": "by interfering with hexokinase and disrupting uncoupler-stimulated mitochondrial electron transport; cited from earlier work"}, "[20]": {"tested_on": "mitochondrial ATPase", "settings": "cited from earlier work"}, "[21]": {"tested_on": "NADH:ubiquinone oxidoreductase", "settings": "cited from earlier work"}, "[22]": {"molecular_target": "human porphobilinogen synthase (PBGS; ALAD) (Homo sapiens, UniProt P13716)", "sequence (P13716 whole entry)": "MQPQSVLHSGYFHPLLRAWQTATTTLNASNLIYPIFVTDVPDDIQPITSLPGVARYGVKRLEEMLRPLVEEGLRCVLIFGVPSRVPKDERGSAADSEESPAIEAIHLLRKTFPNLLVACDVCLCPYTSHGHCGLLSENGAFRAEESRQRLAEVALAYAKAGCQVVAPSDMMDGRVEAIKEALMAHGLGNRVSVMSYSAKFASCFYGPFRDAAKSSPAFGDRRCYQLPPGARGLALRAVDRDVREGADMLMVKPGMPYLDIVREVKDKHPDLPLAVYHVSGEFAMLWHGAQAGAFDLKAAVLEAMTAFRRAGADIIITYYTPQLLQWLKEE", "settings": "allosteric; cited from earlier work"}, "[23]": {"tested_on": "mitochondrial FIFO ATP synthase", "settings": "cited from earlier work"}, "[24]": {"tested_on": "HL-1", "settings": "cited from earlier work"}, "[25]": {"tested_on": "FIFO", "settings": "cited from earlier work"}, "[26]": {"tested_on": "isolated rat hearts", "settings": "during ischemia; cited from earlier work"}, "[27]": {"tested_on": "brush-border membrane vesicles", "settings": "cited from earlier work"}},
  "data": [
    {"molecule": "N#CC(=Cc1ccc(O)cc1)C(=O)O", "note": "[C2020, α-Cyano-4-hydroxycinnamic acid]", "values": [
      {"measurement": "monocarboxylic acid transport, including lactate and pyruvate transport", "setting": "[1]", "result": "Specific inhibitor of"},
      {"measurement": "IC50", "setting": "[2]", "result": 2400, "unit": "µM"}
    ]},
    {"molecule": "O=[N+]([O-])c1c(Cl)cccc1-c1c[nH]cc1Cl", "note": "[P8861, Pyrrolnitrin from Pseudomonas cepacia]", "values": [
      {"measurement": "succinate oxidase", "setting": "[3]", "result": "inhibited succinate oxidase,"},
      {"measurement": "NADH oxidase", "setting": "[4]", "result": "inhibited succinate oxidase,"},
      {"measurement": "succinate cythochrome C reductase", "setting": "[5]", "result": "inhibited succinate oxidase,"},
      {"measurement": "NADH-cytochrome C reductase", "setting": "[6]", "result": "inhibited succinate oxidase,"}
    ]},
    {"molecule": "m-Iodobenzyl-guanidine hemisulfate salt [I9890]", "values": [
      {"measurement": "ADP ribosylation", "setting": "[7]", "result": "Antitumor agent which inhibits"}
    ]},
    {"molecule": "CCOC(=O)N1CCC(NC(=S)Nc2cc(Cl)cc(Cl)c2)CC1", "note": "[SML1280, TT01001]", "values": [
      {"measurement": "binding to mitoNEET", "setting": "[8]", "result": "ligands that binds to mitoNEET"},
      {"measurement": "PPARγ activation", "setting": "[9]", "result": "without PPARγ activation."},
      {"measurement": "glucose intolerance", "setting": "[10]; mice models of diabetes II", "result": "TT01001 improves hyperglycemia,"},
      {"measurement": "hyperglycemia", "setting": "[10]; mice models of diabetes II", "result": "TT01001 improves hyperglycemia,"},
      {"measurement": "hyperlipidemia", "setting": "[10]; mice models of diabetes II", "result": "TT01001 improves hyperglycemia,"},
      {"measurement": "pioglitazone associated weight gain", "setting": "[10]; mouse, in vivo", "result": "anti-diabetic effects without"}
    ]},
    {"molecule": "N#CC(C#N)=NNc1ccc(OC(F)(F)F)cc1", "note": "[C2920, Carbonyl cyanide 4-(trifluoromethoxy)phenylhydrazone]", "values": [
      {"measurement": "depolarizing plasma and mitochondrial membranes", "setting": "[11]", "result": "depolarizing plasma and"},
      {"measurement": "background K+ current", "setting": "[12]", "result": "It also is reported to inhibit"},
      {"measurement": "inward current", "setting": "[12]", "result": "induce a small inward current,"},
      {"measurement": "Mg2+-ATPase activity", "setting": "[13]", "result": "[Na+]. FCCP stimulates Mg2+-"},
      {"measurement": "β-amyloid production", "setting": "[14]", "result": "ATPase activity, inhibits β-"},
      {"measurement": "effect of selective glutamate agonist NMDA on mitochondrial superoxide production", "setting": "[15]", "result": "amyloid production, and mimics"}
    ]},
    {"molecule": "Cc1c(C)c(O)c(CC[C@](C)(O)CCC[C@H](C)CCC[C@H](C)CCCC(C)C)c(C)c1O", "note": "[vitamin E hydroquinone]", "values": [
      {"measurement": "inhibition of ferroptosis", "setting": "[16]", "result": "potent inhibitor"}
    ]},
    {"molecule": "Antimycin A from Streptomyces sp. [A8674]", "values": [
      {"measurement": "Y (probability that dysfunction D1 is present)", "setting": "[17]; 1 minute, 1 uL", "result": 0, "unit": "%"},
      {"measurement": "Y (probability that dysfunction D1 is present)", "setting": "[17]; 30 minutes, 5 uL", "result": "100% or 1"},
      {"measurement": "Y (probability that dysfunction D1 is present)", "setting": "[17]; 1 hours, 1 uL", "result": "100% or 1"},
      {"measurement": "Y (probability that dysfunction D1 is present)", "setting": "[17]; 5 hours, 1 uL", "result": "100% or 1"},
      {"measurement": "Y (probability that dysfunction D1 is present)", "setting": "[17]; 10 hours, 1 uL", "result": "100% or 1"},
      {"measurement": "Y (probability that dysfunction D1 is present)", "setting": "[17]; 2 days, 1 uL", "result": "100% or 1"},
      {"measurement": "apoptosis", "setting": "[18]", "result": "complex III. Induces apoptosis."}
    ]},
    {"molecule": "O=C(O)c1nn(Cc2ccc(Cl)cc2Cl)c2ccccc12", "note": "[L4900, Lonidamine]", "values": [
      {"measurement": "energy metabolism of neoplastic cells", "setting": "[19]", "result": "Inhibits the energy metabolism"}
    ]},
    {"molecule": "CC[C@H]1/C=C/C=C/C[C@@H](C)[C@H](O)[C@@](C)(O)C(=O)[C@@H](C)[C@H](O)[C@@H](C)C(=O)[C@@H](C)[C@H](O)[C@@H](C)/C=C/C(=O)O[C@@H]2[C@H](C)[C@H](CC1)O[C@]1(CC[C@H](C)[C@H](C[C@@H](C)O)O1)[C@H]2C", "note": "[compound 04876, Oligomycin from Streptomyces diastatochromogenes]", "values": [
      {"measurement": "mitochondrial ATPase and phosphoryl group transfer", "setting": "[20]", "result": "Macrolide antibiotic; inhibits"}
    ]},
    {"molecule": "C=C(C)[C@H]1Cc2c(ccc3c2O[C@@H]2COc4cc(OC)c(OC)cc4[C@@H]2C3=O)O1", "note": "[R8875, Rotenone]", "values": [
      {"measurement": "mitochondrial electron transport at NADH:ubiquinone oxidoreductase", "setting": "[21]", "result": "Inhibitor of mitochondrial"}
    ]},
    {"molecule": "ML-3H2 [M2324]", "values": [
      {"measurement": "inhibition of human porphobilinogen synthase", "setting": "[22]", "result": "hexamer-stabilizing inhibitor"}
    ]},
    {"molecule": "O=C(Oc1cc(S(=O)(=O)c2ccccc2)ccc1[N+](=O)[O-])c1ccc(Cl)cc1", "note": "[SML1122, BTB06584]", "values": [
      {"measurement": "ATP hydrolase activity of mitochondrial FIFO ATP synthase", "setting": "[23]", "result": "BTB06584 inhibits the ATP"},
      {"measurement": "effect on mitochondrial membrane potential", "setting": "[24]", "result": "has no effect on oxygen"},
      {"measurement": "effect on oxygen consumption", "setting": "[24]", "result": "has no effect on oxygen"}
    ]},
    {"molecule": "CC1(C)Oc2ccc(S(=O)(=O)N3CCCCC3)cc2[C@@H](N(Cc2ncc[nH]2)c2ccc(Cl)cc2)[C@@H]1O.Cl", "note": "[BM0017, BMS-199264 hydrochloride]", "values": [
      {"measurement": "ATP hydrolase activity of mitochondrial FIFO ATP synthase", "setting": "[23]", "result": "Potently inhibits the ATP"},
      {"measurement": "effect on the ATP synthase function of FIFO", "setting": "[25]", "result": 199624, "unit": "has no effect on the ATP"},
      {"measurement": "depletion of ATP levels", "setting": "[26]", "result": "blocks depletion of ATP levels,"}
    ]},
    {"molecule": "N#CC(C#N)=NNc1cccc(Cl)c1", "note": "[C2759, Carbonyl cyanide 3-chlorophenylhydrazone]", "values": [
      {"measurement": "Cl-/Cl- exchange activities", "setting": "[27]", "result": "hepatic lipase and partially"},
      {"measurement": "pH gradient-activated Cl- uptake", "setting": "[27]", "result": "hepatic lipase and partially"}
    ]}
  ]
}
